Broadly, the IC50 is the point on the concentration scale where inhibition reaches its midpoint. Lower therefore signals inhibition by little substance. What is called Ki is a dissociation constant, usually derived from enzyme kinetics or from competition with a known ligand. A high value points to lower affinity.

Results on 3 compounds are retold here after PMC9181887, “In Vitro Antithrombotic, Hematological Toxicity, and Inhibitor Studies of Protocatechuic, Isovanillic, and p-Hydroxybenzoic Acids from Maclura tricuspidata (Carr.) Bur” (Molecules, 2022).

The subject of test [1] is thrombin-activated platelets. Kind of test: ATP release assay. The format is cell-based. As to conditions: 10–100 μg, vs thrombin group, p < 0.05; except 10 μg of 4-HA (p = 0.915). The method, then:
Figure 7 Effect of PA, IVA, and 4-HA on granule secretion. Aliquots of washed platelets pre-treated with or without the compounds for 5 min were stimulated with 0.25 U/mL thrombin at 37 °C for 5 min. After stimulation, the platelets were centrifuged, and the supernatants were collected. Using these supernatants, ATP (A) or serotonin (B) release was determined according to the manufacturer’s instructions. Each value is the mean ± SD of triplicate measurements. # p < 0.01, compared to each control groups. * p < 0.05 and ** p < 0.01, compared to only thrombin-treated control groups. Thrombin, thrombin treated only; PA10-100, 10–100 μg of PA treated; IVA10-100, 10–100 μg of IVA treated; 4-HA10-100, 10–100 μg of 4-HA treated.
Aliquots of washed platelets (250 × 10^6/mL) pre-treated with the compounds for 5 min were activated with 0.25 U/mL of thrombin for 5 min at 37 °C, according to a previously described method, with slight modifications. After activation, the supernatant from centrifuged platelets was used. ATP release was evaluated using an ATP assay kit (Biomedical Research Service Center, Buffalo, NY, USA), according to the manufacturer’s instructions.

Test [2] deals with fibrin polymers and clots (fibrinogen, thrombin, CaCl2). Kind of test: Turbidity assay of fibrin polymer/clot formation. The format is biochemical, Human. As to conditions: 1, 2, 5, 10, and 20 μg; 2000 s. The method, then: Inhibition of fibrin clot formation was determined using a turbidity assay as previously described. The reaction mixtures were prepared by the addition of the compounds, 10 IU u-PA as a positive control (PC), or vehicle as a negative control (NC) 2 in a volume of 100 μL of 5 mM CaCl2, 0.5 U/mL of thrombin, and […] fibrinogen in 20 mM Tris-HCl (pH 7.4). The mixture was incubated for 5 min at 37 °C, and turbidity was monitored at 405 nm every 1 min for 2000 s using a microplate reader (Molecular Devices, Sunnyvale, CA, USA). The clot density was presented as a percentage of inhibition.

The next test concerns the target T1, human FXIIIa (Homo sapiens, UniProt P00488).
T1 construct: purchased Sigma-Aldrich
T1 sequence (P00488 39-732 limits assumed): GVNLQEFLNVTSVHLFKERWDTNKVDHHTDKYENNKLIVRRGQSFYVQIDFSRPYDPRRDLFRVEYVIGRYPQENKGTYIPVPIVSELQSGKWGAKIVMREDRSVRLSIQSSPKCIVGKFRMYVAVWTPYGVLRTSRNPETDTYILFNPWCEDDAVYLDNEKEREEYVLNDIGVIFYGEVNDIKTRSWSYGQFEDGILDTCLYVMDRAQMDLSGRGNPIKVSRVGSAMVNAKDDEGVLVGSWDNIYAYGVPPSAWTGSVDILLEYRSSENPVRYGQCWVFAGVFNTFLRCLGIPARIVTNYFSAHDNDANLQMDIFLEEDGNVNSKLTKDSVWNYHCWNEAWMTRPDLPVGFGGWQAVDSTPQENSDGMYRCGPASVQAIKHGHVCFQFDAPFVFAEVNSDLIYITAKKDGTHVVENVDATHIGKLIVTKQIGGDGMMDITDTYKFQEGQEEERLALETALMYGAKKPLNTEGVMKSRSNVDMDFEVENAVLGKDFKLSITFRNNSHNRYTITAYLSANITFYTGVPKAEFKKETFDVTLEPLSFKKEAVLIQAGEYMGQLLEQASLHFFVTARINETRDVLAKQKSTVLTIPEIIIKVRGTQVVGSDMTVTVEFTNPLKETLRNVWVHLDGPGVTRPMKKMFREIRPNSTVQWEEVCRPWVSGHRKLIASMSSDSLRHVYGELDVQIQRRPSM
Put plainly: FXIIIa activity and kinetic/inhibitor assay. In kind it is biochemical. As to conditions: for FXIIIa activity: 1–20 μg, vs control, p < 0.05; for IC50 / Ki / Kik/Kiv / Kcat / Vmax: FXIIIa; for inhibition type against FXIIIa: from Kik/Kiv ratio and Lineweaver–Burk plots. The method, then:
To determine the thrombin activity, various concentrations of compounds were treated with 1 U human thrombin in 100 μL of 20 mM Tris-HCl, as previously described. The reaction solutions were incubated for 15 min at 37 °C. After the incubation, 1 mM chromogenic substrate for thrombin (S-2238, HD-Phe-Pip-Arg-p-nitroanilide) was added and incubated for 1 h at 37 °C. Absorbance was measured at 405 nm to determine the enzymatic activity. To determine FXa activity, various concentrations of the compounds were mixed with 1 U human FXa in 20 mM Tris-HCl (pH 7.4) in volume of 100 μL, followed by incubation for 15 min at 37 °C. After adding 1 mM N-benzoyl-Ile-Glu-Gly-Arg-p-nitroanilide, a highly specific chromogenic peptide substrate for FXa, the reaction solutions were incubated for 1 h at 37 °C. The residual activity of FXa was measured at 405 nm and is presented as a percentage of inhibition. To investigate FXIIIa activity, various concentrations of the compounds were mixed with 1 U human FXIIIa in 20 mM Tris-HCl (pH 7.4) in a volume of 100 μL, followed by, incubation for 15 min at 37 °C as previously described. The residual activity of FXIIIa was measured using casein and fibrinogen-HRP, according to the manufacturer’s instructions, and was presented as a percentage of inhibition. The negative control was generated by treatment with only thrombin, FXa, or FXIIIa without treatment with any compound.
Kinetic assays were performed using PA, IVA, and 4-HA for procoagulant proteases (thrombin and FXa) and fibrinoligase (FXIIIa). The kinetic constants were calculated using Lineweaver–Burk plots based on the initial reaction rates with different concentrations (0.1, 0.5, 1, and 2 mM) of each substrate for thrombin, FXa, and FXIIIa treated with or without the compounds (0.065, 0.13, 0.33, 0.65, and 1.30 mM [1–20 μg]) in a total volume of 100 μL. The Michaelis–Menten constant (Km) and maximal velocity (Vmax) were calculated from the x and y intercepts, respectively. […] The median inhibitory concentration (IC50) was defined as the concentration required to reach a 50% reduction in the activity of the three target factors. The Kik and Kiv inhibition constants were calculated using a previously described method. The inhibition type of the compounds against the three target factors was evaluated according to a previously described inhibition type definition.

On to `O=C(O)c1ccc(O)cc1` [4-HA, 4-hydroxybenzoic acid], for which, in test [1], the “thrombin-stimulated ATP secretion levels” value is “significantly decreased”. In addition, the “fibrin polymer/clot formation (turbidity at 405 nm)” value (“fibrin polymer/clot formation” below) in test [2] is given as “dose-dependently inhibited”. Also, on human FXIIIa, the FXIIIa activity entry was “significant reductions”; the IC50 is 1960 µM; the affinity, expressed as Ki, was 1960 µM; the Kik/Kiv was 6005.6. Besides, at human FXIIIa, the “inhibition type against FXIIIa” value was “non-competitive inhibition type”. In addition, at human FXIIIa (compound 0.065 mM (1 μg)), the Kcat turned out to be 88.6 ± 0.10 s⁻¹ and the Vmax is listed as 0.142 ± 0.04 mU/min. In addition, at human FXIIIa (compound 0.13 mM (2 μg)), the Kcat was found to be 87.7 ± 0.09 s⁻¹ and the Vmax amounted to 0.141 ± 0.04 mU/min. Moreover, at human FXIIIa (compound 0.325 mM (5 μg)), the Kcat was determined as 77.2 ± 0.05 s⁻¹ and the Vmax worked out at 0.124 ± 0.03 mU/min. Besides, at human FXIIIa (compound 0.65 mM (10 μg)), the Kcat was determined as 70.5 ± 0.07 s⁻¹ and the Vmax is on record as 0.113 ± 0.03 mU/min. In addition, at human FXIIIa (compound 1.3 mM (20 μg)), the Kcat was found to be 62.0 ± 0.06 s⁻¹ and the Vmax worked out at 0.099 ± 0.04 mU/min.
As for `COc1ccc(C(=O)O)cc1O` [IVA, isovanillic acid], the “thrombin-stimulated ATP secretion levels” value in test [1] is reported as “significantly decreased”. In test [2], the “fibrin polymer/clot formation” value is “dose-dependently inhibited”. Besides, at human FXIIIa, the FXIIIa activity entry was “significant reductions”, it took 1920 µM to reach half-maximal inhibition (IC50), the affinity corresponds to a Ki of 1920 µM and the Kik/Kiv is given as 10.4. Also, the “inhibition type against FXIIIa” value on human FXIIIa is given as “non-competitive inhibition type”. At human FXIIIa (compound 0.065 mM (1 μg)), the Kcat came out at 89.3 ± 0.09 s⁻¹ and the Vmax amounted to 0.143 ± 0.02 mU/min. On human FXIIIa (compound 0.13 mM (2 μg)), the Kcat was found to be 84.5 ± 0.07 s⁻¹ and the Vmax came out at 0.135 ± 0.03 mU/min. For the same compound, at human FXIIIa (compound 0.325 mM (5 μg)), the Kcat was found to be 80.5 ± 0.05 s⁻¹ and the Vmax worked out at 0.129 ± 0.04 mU/min. Also, on human FXIIIa (compound 0.65 mM (10 μg)), the Kcat stood at 80.5 ± 0.09 s⁻¹ and the Vmax was 0.129 ± 0.03 mU/min. At human FXIIIa (compound 1.3 mM (20 μg)), the Kcat came to 68.7 ± 0.08 s⁻¹ and the Vmax amounted to 0.110 ± 0.04 mU/min.
On to `O=C(O)c1ccc(O)c(O)c1` [PA, protocatechuic acid], for which the “thrombin-stimulated ATP secretion levels” value in test [1] was “significantly decreased”. The “fibrin polymer/clot formation” value in test [2] is “dose-dependently inhibited”. Moreover, on human FXIIIa, the FXIIIa activity result is “significant reductions”, 1640 µM corresponded to half-maximal inhibition (IC50), the affinity corresponds to a Ki of 1630 µM and the Kik/Kiv is listed as 6.1. Further, the “inhibition type against FXIIIa” value at human FXIIIa was “non-competitive inhibition type”. For the same compound, at human FXIIIa (compound 0.065 mM (1 μg)), the Kcat is 91.1 ± 0.03 s⁻¹ and the Vmax is 0.146 ± 0.03 mU/min. Also, at human FXIIIa (compound 0.13 mM (2 μg)), the Kcat was 84.4 ± 0.06 s⁻¹ and the Vmax is 0.135 ± 0.02 mU/min. Moreover, at human FXIIIa (compound 0.325 mM (5 μg)), the Kcat came to 80.1 ± 0.05 s⁻¹ and the Vmax came out at 0.128 ± 0.03 mU/min. Besides, on human FXIIIa (compound 0.65 mM (10 μg)), the Kcat stood at 71.8 ± 0.07 s⁻¹ and the Vmax was found to be 0.115 ± 0.04 mU/min. At human FXIIIa (compound 1.3 mM (20 μg)), the Kcat was 62.5 ± 0.04 s⁻¹ and the Vmax is on record as 0.100 ± 0.02 mU/min.
